Test results taken from patent US12649734B2, “Bioavailable protein disulfide isomerase inhibitors” (THE CLEVELAND CLINIC FOUNDATION, priority 2020, dated 2026).

Key:
PDIA1 = PDIA1 (Homo sapiens, UniProt P07237); experiment: PDIA1 activity assay, di-E-GSSG reduction (fluorescence); type: biochemical; parameters: His6 (6xHN, pET6xHN-N vector) (N); made in house; host or cells: Escherichia coli BL21 (DE3) NiCo; details: di-EGGS assay; read-out: inactivation constant, Kinact for PDIA1
Procedure: PDI activity: All PDI activity assays were performed using two different substrates, insulin and di-eosin-diglutathione (di-E-GSSG) as described earlier (Vatolin et al., Ibid) with brief modifications. PDIA1 (1 μM) was incubated for 1 h with varying concentrations of PDIA1 inhibitors 642 or 642-34 (0.1, 03, 1, 5, 10, or 20 μM) in 100 mM sodium phosphate pH 7.0, 2 mM EDTA, and 1% DMSO. Bovine insulin (100 μM) and DTT (1 mM) were added to initiate the reaction. Kinetic readings were taken every minute for 2 h at 650 nm absorbance using a BioTek Synergy plate reader (BioTek Instruments, Inc., Winooski, VT, USA). For highly sensitive fluorescence-based assays, di-E-GSSG as a pseudo substrate was utilized to access the activity of PDIA1. Raturi, A.; Mutus, B., Free. Radic. Biol. Med., 43, 62-70 (2007) Known concentrations of recombinant PDIA1 were mixed with 10 mM GSH and incubated at 37° C. for 30 min in 150 mM K2HPO4/KH2PO4 (pH 7.1) buffer solution. PDI inhibitor was added into the mixture and incubated for an additional 30 min at 37° C. […] Synergy H1 plate reader (BioTek, WI, USA) was used for kinetic analysis using excitation at 518 nm, emission at 545 nm, reads of 0.1 sec/well every minute at 25° C. for 1 h. Baseline fluorescence was determined from di-E-GSSG reactions without PDI and GSH. […]

[1] = tested on: myeloma cells (MM1.S, MM1.S.LUC, BTZ-resistant MM1.S.LUC); experiment: ROS detection (carboxy-H2DCFDA); type: cell-based, human; details: 2.5 μM, peaking between 2-3 h
Procedure: ROS detection: MM1.S, MM1.S.LUC, and BTZ-resistant MM1.S.LUC cells were washed with DPBS and treated with 5 μM carboxy-H2DCFDA (Molecular Probes) for 45 min at 37° C. The cells were then washed 3 times in DPBS and followed by 2.5 μM CCF642-34 treatment up to 4 h. After the incubation, the cells were washed 3 times and the intracellular ROS was quantified (excitation=493 nm; […]) using a BioTek Synergy plate reader (BioTek Instruments, Inc., Winooski, VT, USA).

MM1.S cells [2] = experiment: ER stress response and apoptosis markers by immunoblotting; type: cell-based, human; details: 3 μM, 4 h
Procedure: FIGS. 6A-6C provide graphs and images showing PDIA1 inhibition by CCF642 analogues induce acute endoplasmic reticulum (ER) stress response and lead to apoptosis. Multiple myeloma cells (MM1.S) were treated with 3 μM of CCF642, -34, -37, -39, -34-A, and Tunicamycin (as a control). The status of ER sensors (XBP-1S, IRE1α oligomerization, and induction of C/EBP homology protein (CHOP)) along with apoptosis markers (cleaved caspase 3 and PARP1) were monitored. (A) MM1.S cells were treated for 4 h with CCF642 and its indicated analogues. (B) MM1.S cells were treated with CCF642-34 in a time course. (C) MM1.S, MM1.S.luc, and BTZ-resistant MM1.S.luc cells were stained with the H2DCFDA ROS detection and then treated with 2.5 μM CCF642-34 up to 4 h.
Immunoblotting: Immunoblotting was performed as described previously (Dallas et al., Blood, 93, 1697-1706 (1999)) using primary antibodies against PDIA1 (Cat #3501), XBP1-S (Cat #12782); IRE1α (Cat #3294), C/EBP homologous protein (CHOP) (Cat #5554), Caspase-3 (Cat #9665), PARP1 (Cat #9542), and GAPDH (Cat #3683) purchased from Cell Signaling Technology, Inc. (Danvers, MA, USA) and used at 1:1000 dilution, unless mentioned otherwise.

MM1.S cells [3] = experiment: Cell viability assay (CellTiter-Glo), MM1.S; type: cell-based, human; details: MM cells, in vitro cell culture
Procedure: Cell vi-ability and LD50 for inhibitors were measured in 96 well culture plates (2×10^4 cells/well) after 72 h of treatment using CellTiter-Glo® Luminescent Cell Viability Assay (Promega, Madison, WI, USA). (A) Cell survival assay with MM1.S.luc and BTZ-resistant MM1.S.luc cells. […] (C) Comparison of PDIA1 protein levels in MM1.S.luc and MM1.S.luc BTZ-resistant cells. Band intensity was calculated with Image Lab Version 5.2.1. (D) Cell survival assay with 5TGM1.luc and (E) BTZ-resistant 5TGM1.luc cells. (F) MM1.S cell line was exposed to CCF642-34, and BTZ for 72 h for synergistic drug combination test according to Chou and Talalay method. If the […] remained less than 1, the two drugs were determined as synergistic. […] The number of colony-forming units were plotted for each treatment.
Cell viability assay: Cell viability was measured in 96 well culture plates (2×10^4 cells/well) using CellTiter-Glo® Luminescent Cell Viability Assay (Promega, Madison, WI, USA) according to the manufacturer's protocol.

Chain of PDIA1 (P07237 18-508): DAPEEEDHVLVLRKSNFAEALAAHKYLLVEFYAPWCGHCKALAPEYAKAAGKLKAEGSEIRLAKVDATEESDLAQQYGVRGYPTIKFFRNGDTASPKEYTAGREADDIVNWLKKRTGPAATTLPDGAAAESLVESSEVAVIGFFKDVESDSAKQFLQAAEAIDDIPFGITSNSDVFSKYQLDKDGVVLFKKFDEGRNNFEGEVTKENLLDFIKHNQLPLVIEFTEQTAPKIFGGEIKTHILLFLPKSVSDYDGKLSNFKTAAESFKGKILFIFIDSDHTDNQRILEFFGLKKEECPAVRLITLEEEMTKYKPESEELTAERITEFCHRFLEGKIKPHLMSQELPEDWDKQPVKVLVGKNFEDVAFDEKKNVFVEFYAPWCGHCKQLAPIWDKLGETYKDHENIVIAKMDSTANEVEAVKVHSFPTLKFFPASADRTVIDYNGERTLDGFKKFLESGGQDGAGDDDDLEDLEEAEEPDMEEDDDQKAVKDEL

For `NC(CC1CNc2ccccc21)C(=O)NCCCOc1ccc(N2C(=O)/C(=C/c3ccc([N+](=O)[O-])s3)SC2=S)cc1` (stereo not shown) [CCF642-34], the KI (inactivation) (PDIA1) was 0.088 ± 0.0028 µM, the “increase of reactive oxygen species (ROS)” value [1] was 4-6 fold and the “ER stress response (induction of XBP-1S and CHOP)” value (MM1.S cells [2]) was “induced a robust ER stress response”. For the same compound, the “higher potency compared to CCF642” value (MM1.S cells [3]) was ~2 fold.
